Measured values as given in publication PMC2783032, “Affinity maturation generates greatly improved xyloglucan-specific carbohydrate binding modules” (BMC Biotechnology, 2009).

What was measured:
Assay in all cases: Isothermal titration calorimetry at 25 °C in 20 mM HEPES, pH 8.0, 2 mM CaCl2, 50 uM protein in the cell titrated with oligosaccharide, single-site non-linear regression.
Format in all cases: binding
XG-34 = molecular target: T1, XG-34 (Rhodothermus marinus, UniProt Q7WTN6, E282H/E322D/F286L/F320H/Q321D/W279Y/Y359F); conditions: read-out: KA (10^3 M^-1)
T1 construct: CBM4-2 domain scaffold, hexahistidine tag (pET22b, E. coli BL21 (DE3))
Method: (§1) Isothermal titration calorimetry (ITC) measurements were performed at 25°C following standard procedures using a Microcal Omega titration calorimeter (Northampton, MA, USA). XXXG and XLLG (Figure 1) were prepared as previously described. Prior to analysis, the CBM were extensively dialyzed against 20 mM HEPES, pH 8.0 containing 2 mM CaCl2. The same buffer was used to dissolve tamarind seed xyloglucan, XXXG, XLLG and galactose to minimize heats of dilution. 50 μM protein samples were stirred at 300 rpm in a 1.4331 ml reaction cell. Ligands were injected as a single 1 μl aliquot followed by 27 successive 10 μl aliquots at 300 s intervals (2 mM, 7.5 mM or 10 mM XXXG; 1 mM or 5 mM XLLG; 2.5% or 5% w/v xyloglucan; 10 mM galactose). Integrated heat effects were analyzed by non-linear regression using a single-site binding model.

XG-34/1-X = system: T2, XG-34/1-X
T2 construct: CBM4-2 domain scaffold, hexahistidine tag (pET22b, E. coli BL21 (DE3))
Method: as §1

XG-34/2-VI = system: T3, XG-34/2-VI
T3 construct: CBM4-2 domain scaffold, hexahistidine tag (pET22b, E. coli BL21 (DE3))
Method: as §1

SMILES: OC[C@H]1O[C@@H](O[C@H]2[C@@H](OC[C@H]3O[C@@H](O[C@H]4[C@H](O)[C@@H](O)[C@H](O[C@H]5[C@H](O)[C@@H](O)C(O)O[C@@H]5CO)O[C@@H]4CO[C@H]4OC[C@@H](O)[C@H](O)[C@H]4O[C@@H]4O[C@H](CO)[C@H](O)[C@H](O)[C@H]4O)[C@H](O)[C@@H](O)[C@@H]3O[C@@H]3O[C@H](CO[C@H]4OC[C@@H](O)[C@H](O)[C@H]4O)[C@@H](O)[C@H](O)[C@H]3O)OC[C@@H](O)[C@@H]2O)[C@H](O)[C@@H](O)[C@H]1O (stereo partly shown) [XLLG, xyloglucan oligosaccharide XLLG (galactose-containing nonasaccharide, Gal2Xyl3Glc4)]
- Kd (XG-34): ~1 mM

SMILES: OC[C@H]1OC(O)[C@H](O)[C@@H](O)[C@@H]1O[C@@H]1O[C@H](CO[C@H]2OC[C@@H](O)[C@H](O)[C@H]2O)[C@@H](O[C@@H]2O[C@H](CO[C@H]3OC[C@@H](O)[C@H](O)[C@H]3O)[C@@H](O[C@@H]3O[C@H](CO[C@H]4OC[C@@H](O)[C@H](O)[C@H]4O)[C@@H](O)[C@H](O)[C@H]3O)[C@H](O)[C@H]2O)[C@H](O)[C@H]1O (stereo partly shown) [XXXG, xyloglucan oligosaccharide XXXG (non-galactosylated heptasaccharide, Xyl3Glc4)]
- KA (10^3 M^-1) (XG-34/1-X): ~ ≈ 1 M-1
- KA (10^3 M^-1) (XG-34/2-VI): ~ ≈ 1 M-1
- Kd (XG-34): ~1 mM
